Test results from patent US10709725B2, “Gemcitabine ProTide hypoxia-activated prodrug and application thereof” (JIANGSU QIANZHIKANG BIOLOGICAL MEDICINE SCIENCE AND …, priority 2016, dated 2020).
≈ marks a conversion by molar mass, not a printed value. Entries after “also recorded” stand apart in the source; their conditions may differ. Where two headings read alike, the source gives them in different places.

Columns and labels:
[1] = tested on: Human pancreatic adenocarcinoma cell BxPC-3 cell; experiment: In-vitro inhibition of tumor cell proliferation (3H-TdR, 72 h), normal oxygen and hypoxic; assay type: cell-based; design: Median inhibition concentration IC50 normal oxygen (air) / Median inhibition concentration IC50 hypoxic (nitrogen): unit not given here; conditions: for IC50: Homo sapiens
[2] = tested on: Human lung adenocarcinoma cell A549; experiment: as above; assay type: cell-based; conditions: A549, 72 h
Method: (§1) Take tumor cells in the logarithmic growth phase, add 0.25% pancreatin for digestion for 3 min, use RPMI-1640 containing 10% calf serum for suspension culture of the cells, count the number, adjust cell concentration to 1×10^5 cells/mL, inoculate to a Top-count dedicated 96-well cell culture plate at 100 μL/well, and incubate at 37° C. and 5% CO2 for 24 h; divide the cells into experimental groups and control groups, and add a target compound solution (0.001 μg/mL, 0.01 μg/mL, 0.1 μg/mL, 1 μg/mL, 10 μg/mL) to the experimental groups, wherein each concentration corresponded to four wells, and the volume of each well was made up to 200 μL; after adding samples, continue to culture for 72 h for each group (for hypoxic groups, continue to culture for 72 h at 5% CO2, 95% N2), add ^3H-TdR 3×10^5Bq to each group before culture ended, and measure the CPM (count per minute) value of each well with Top-count; and calculate the median inhibition concentration (IC50) of drugs in each experimental group on cell proliferation.

[3] = tested on: Human liver cancer HepG2 cell; experiment: as above; assay type: cell-based; conditions: HepG2, 72 h
Method: as §1

tumor cells = experiment: In-vitro inhibition of tumor cell proliferation, hypoxic versus normal oxygen; assay type: cell-based; conditions: in words, see Table 1
Method: as §1

[4] = tested on: subcutaneous transplantation tumor of human BxPC-3; experiment: Growth inhibition of subcutaneous transplantation tumor of human BxPC-3 in nude mice, with animal weight; assay type: in vivo; conditions: high-dose group, 4 times of the effective dose (0.4 mmol/kg); FIG. 3
Method: Take BxPC-3 human pancreatic cancer cells in the logarithmic growth phase, inoculate subcutaneously on the back of nude mice at a concentration of 5×10^6 cells·0.2 mL^−1·mouse^−1, three weeks later, after the long diameters of the transplanted tumors in nude mice were all ≥5 mm, calculate the similar volume of tumor bodies based on the long diameter and short diameter of the transplanted tumors. Nude mice were divided into 5 groups by a random block design and allocation method according to the tumor volume.
Administration scheme: 50 model animals were randomly divided into a negative control group, a low-dose group (compound 001, 0.1 mmol/kg), a high-dose group (compound 001, 0.4 mmol/kg), a gemcitabine hydrochloride group (0.2 mmol/kg), and a combined administration group (compound 001, 0.1 mmol/kg+ gemcitabine hydrochloride, 0.1 mmol/kg), intraperitoneally injected (twice per week) for 3 weeks, and killed one week after drug withdrawal. At the same time, animal weight was measured and the eye condition of the animal was observed.

[5] = hypoxic (5% CO2, 95% N2), read-out: Median inhibition concentration IC50 hypoxic (nitrogen)
[6] = normal oxygen (air), read-out: Median inhibition concentration IC50 normal oxygen (air)
[7] = BXPC-3, 72 h, hypoxic (5% CO2, 95% N2), read-out: Median inhibition concentration IC50 hypoxic (nitrogen)
[8] = BXPC-3, 72 h, normal oxygen (air), read-out: Median inhibition concentration IC50 normal oxygen (air)
[9] = BxPC-3, 72 h, hypoxic (5% CO2, 95% N2), read-out: Median inhibition concentration IC50 hypoxic (nitrogen)
[10] = BxPC-3, 72 h, normal oxygen (air), read-out: Median inhibition concentration IC50 normal oxygen (air)
[11] = BxPC-3, 72 h, hypoxic (5% CO2, 95% N2)
[12] = BxPC-3, 72 h, normal oxygen (air)

| SMILES | IC50 [2, 5] [µg/mL] | IC50 [2, 6] [µg/mL] | IC50 [3, 5] [µg/mL] | IC50 [3, 6] [µg/mL] | IC50 [1, 7] [µg/mL] | IC50 [1, 8] [µg/mL] | other results |
| --- | --- | --- | --- | --- | --- | --- | --- |
| CC(OC(=O)Nc1ccn([C@@H]2O[C@H](COP(=O)(N[C@@H](C)C(=O)OCc3ccccc3)Oc3ccccc3)C(O)C2(F)F)c(=O)n1)c1ccc([N+](=O)[O-])cc1 (some centres unmarked) [Compound 022] | 0.01 (≈ 0.0129 µM) | 0.01 (≈ 0.0129 µM) | 0.3 (≈ 0.388 µM) | 0.4 (≈ 0.517 µM) |  |  | IC50 ([1]; BXPC-3, 72 h, read-out: Median inhibition concentration IC50 hypoxic (nitrogen)): 0.1 µg/mL (≈ 0.129 µM); IC50 ([1]; BXPC-3, 72 h, read-out: Median inhibition concentration IC50 normal oxygen (air)): 0.1 µg/mL (≈ 0.129 µM); Cytotoxicity under a hypoxic condition compared with that under a normal oxygen condition (tumor cells): not significantly different |
| C[C@H](NP(=O)(OCc1ccc([N+](=O)[O-])s1)OC[C@H]1O[C@@H](n2cnc(N)nc2=O)C(F)(F)C1O)C(=O)OC1CCCCC1 (some centres unmarked) [Compound 013] |  |  |  |  | 0.8 (≈ 1.25 µM) | > 10 |  |
| C[C@H](NP(=O)(OC[C@H]1O[C@@H](n2ccc(N)nc2=O)C(F)(F)C1O)Oc1ccccc1)C(=O)OC(C)(C)c1ccc([N+](=O)[O-])cc1 (some centres unmarked) [Compound 002] | 0.1 (≈ 0.153 µM) | 2 (≈ 3.06 µM) | 0.2 (≈ 0.306 µM) | > 10 |  |  | IC50 [1, 9]: 0.4 µg/mL (≈ 0.612 µM); IC50 [1, 10]: > 10 µg/mL |
| Nc1ccn([C@@H]2O[C@H](CO)[C@@H](O)C2(F)F)c(=O)n1 [Gemcitabine] | 0.01 (≈ 0.038 µM) | 0.01 (≈ 0.038 µM) | 0.2 (≈ 0.76 µM) | 0.2 (≈ 0.76 µM) |  |  | IC50 [1, 9]: 0.2 µg/mL (≈ 0.76 µM); IC50 [1, 10]: 0.2 µg/mL (≈ 0.76 µM); Cytotoxicity under a hypoxic condition compared with that under a normal oxygen condition (tumor cells): no significant difference |
| CC(OC(=O)[C@H](C)NP(=O)(OC[C@H]1O[C@@H](n2ccc(N)nc2=O)C(F)(F)C1O)Oc1ccccc1)c1cnc([N+](=O)[O-])n1C (some centres unmarked) [Compound 003] |  |  | 0.4 (≈ 0.622 µM) | > 10 |  |  |  |
| CC(OP(=O)(N[C@@H](C)C(=O)OC1CCCCC1)OC[C@H]1O[C@@H](n2cnc(N)nc2=O)C(F)(F)C1O)c1ccc([N+](=O)[O-])cc1 (some centres unmarked) [Compound 012] |  |  | 0.5 (≈ 0.773 µM) | > 10 | 0.5 (≈ 0.773 µM) | > 10 |  |
| CC(OC(=O)[C@H](C)NP(=O)(OC[C@H]1O[C@@H](n2ccc(N)nc2=O)C(F)(F)C1O)Oc1ccccc1)c1ccc([N+](=O)[O-])s1 (some centres unmarked) [Compound 005] | 0.1 (≈ 0.155 µM) | 2 (≈ 3.1 µM) |  |  |  |  |  |
| CC(C)OC(=O)[C@H](C)NP(=O)(OC[C@H]1O[C@@H](n2cnc(N)nc2=O)C(F)(F)C1O)OC(C)c1ccc([N+](=O)[O-])cc1 (some centres unmarked) [Compound 009] | 0.2 (≈ 0.33 µM) | 2 (≈ 3.3 µM) |  |  | 0.4 (≈ 0.66 µM) | > 10 |  |
| CC(C)OC(=O)[C@H](C)NP(=O)(OCc1ccc([N+](=O)[O-])s1)OC[C@H]1O[C@@H](n2cnc(N)nc2=O)C(F)(F)C1O (some centres unmarked) [Compound 016] |  |  |  |  | 0.4 (≈ 0.668 µM) | > 10 |  |
| CC(OP(=O)(N[C@@H](C)C(=O)OCC(C)(C)C)OC[C@H]1O[C@@H](n2cnc(N)nc2=O)C(F)(F)C1O)c1ccc([N+](=O)[O-])cc1 (some centres unmarked) [Compound 011] | 0.2 (≈ 0.315 µM) | 2 (≈ 3.15 µM) |  |  |  |  |  |
| CC(OC(=O)[C@H](C)NP(=O)(OCc1ccc(N(C)C)cc1)OC[C@H]1O[C@@H](n2ccc(N)nc2=O)C(F)(F)C1O)c1ccc([N+](=O)[O-])cc1 (some centres unmarked) [Compound 020] |  |  |  |  | 0.4 (≈ 0.574 µM) | > 10 |  |
| CC(OC(=O)[C@H](C)NP(=O)(OC[C@H]1O[C@@H](n2ccc(N)nc2=O)C(F)(F)C1O)Oc1ccccc1)c1ccc([N+](=O)[O-])cc1 (some centres unmarked) [Compound 001] | 0.05 (≈ 0.0782 µM) | 1 (≈ 1.56 µM) | 0.3 (≈ 0.469 µM) | > 10 |  |  | IC50 [1, 9]: 0.2 µg/mL (≈ 0.313 µM); IC50 [1, 10]: > 10 µg/mL; Animal weight [4]: no significant difference in animal weight; also recorded: not significantly different from that of the low-dose group and a positive control drug gemcitabine group |
| CC(OP(=O)(N[C@@H](C)C(=O)OCc1ccccc1)OC[C@H]1O[C@@H](n2ccc(N)nc2=O)C(F)(F)C1O)c1ccc([N+](=O)[O-])cc1 (some centres unmarked) [Compound 006] | 0.2 (≈ 0.306 µM) | 2 (≈ 3.06 µM) |  |  | 0.4 (≈ 0.612 µM) | > 10 |  |
| C[C@H](NP(=O)(OC[C@H]1O[C@@H](n2ccc(N)nc2=O)C(F)(F)C1O)Oc1ccccc1)C(=O)OCc1ccc([N+](=O)[O-])cc1 (some centres unmarked) [Compound 023] | 0.01 (≈ 0.016 µM) | 0.01 (≈ 0.016 µM) | 0.3 (≈ 0.48 µM) | 0.4 (≈ 0.64 µM) |  |  | IC50 [1, 9]: 0.1 µg/mL (≈ 0.16 µM); IC50 [1, 10]: 0.1 µg/mL (≈ 0.16 µM); Cytotoxicity under a hypoxic condition compared with that under a normal oxygen condition (tumor cells): not significantly different |
| C[C@H](NP(=O)(OCc1ccccc1Cl)OC[C@H]1O[C@@H](n2ccc(N)nc2=O)C(F)(F)C1O)C(=O)OC(C)(C)c1ccc([N+](=O)[O-])s1 (some centres unmarked) [Compound 024] |  |  |  |  |  |  | Median inhibition concentration IC50 hypoxic (nitrogen) [1, 11]: >10; Median inhibition concentration IC50 normal oxygen (air) [1, 12]: >10; Cytotoxicity under a hypoxic condition compared with that under a normal oxygen condition (tumor cells): differed slightly |
| CCOC(=O)[C@H](C)NP(=O)(OC[C@H]1O[C@@H](n2cnc(N)nc2=O)C(F)(F)C1O)OC(C)c1ccc([N+](=O)[O-])cc1 (some centres unmarked) [Compound 008] |  |  | 0.3 (≈ 0.506 µM) | > 10 | 0.4 (≈ 0.675 µM) | > 10 |  |
| COc1ccccc1COP(=O)(N[C@@H](C)C(=O)OC(C)c1cnc([N+](=O)[O-])n1C)OC[C@H]1O[C@@H](n2ccc(N)nc2=O)C(F)(F)C1O (some centres unmarked) [Compound 021] |  |  |  |  | 0.5 (≈ 0.727 µM) | > 10 |  |
| CCOC(=O)[C@H](C)NP(=O)(OCc1cnc([N+](=O)[O-])n1C)OC[C@H]1O[C@@H](n2cnc(N)nc2=O)C(F)(F)C1O (some centres unmarked) [Compound 017] |  |  |  |  | 0.8 (≈ 1.37 µM) | > 10 |  |
| Cc1ccccc1COP(=O)(N[C@@H](C)C(=O)OC(C)(C)c1ccc([N+](=O)[O-])s1)OC[C@H]1O[C@@H](n2ccc(N)nc2=O)C(F)(F)C1O (some centres unmarked) [Compound 019] |  |  |  |  | 0.8 (≈ 1.16 µM) | > 10 |  |
| COc1ccc(COP(=O)(N[C@@H](C)C(=O)OC(C)c2ccc([N+](=O)[O-])o2)OC[C@H]2O[C@@H](n3ccc(N)nc3=O)C(F)(F)C2O)cc1 (some centres unmarked) [Compound 018] |  |  |  |  | 0.5 (≈ 0.742 µM) | > 10 |  |
| COC(=O)[C@H](C)NP(=O)(OC[C@H]1O[C@@H](n2cnc(N)nc2=O)C(F)(F)C1O)OC(C)c1ccc([N+](=O)[O-])cc1 (some centres unmarked) [Compound 014] |  |  |  |  |  |  | Median inhibition concentration IC50 hypoxic (nitrogen) [1, 11]: 0.7; Median inhibition concentration IC50 normal oxygen (air) [1, 12]: > 10 |
| CCCCOC(=O)[C@H](C)NP(=O)(OC[C@H]1O[C@@H](n2cnc(N)nc2=O)C(F)(F)C1O)OC(C)c1ccc([N+](=O)[O-])cc1 (some centres unmarked) [Compound 010] | 0.2 (≈ 0.322 µM) | 2 (≈ 3.22 µM) |  |  |  |  |  |
| C[C@H](NP(=O)(OCc1ccc([N+](=O)[O-])o1)OC[C@H]1O[C@@H](n2ccc(N)nc2=O)C(F)(F)C1O)C(=O)OCc1ccccc1 (some centres unmarked) [Compound 015] |  |  |  |  | 0.5 (≈ 0.794 µM) | > 10 |  |
| C[C@H](NP(=O)(OC[C@H]1O[C@@H](n2ccc(N)nc2=O)C(F)(F)[C@@H]1O)Oc1ccccc1)C(=O)OCc1ccccc1 (some centres unmarked) [NUC-1031, reference compound] | 0.01 (≈ 0.0172 µM) | 0.01 (≈ 0.0172 µM) | 0.2 (≈ 0.345 µM) | 0.2 (≈ 0.345 µM) |  |  | IC50 [1, 9]: 0.1 µg/mL (≈ 0.172 µM); IC50 [1, 10]: 0.1 µg/mL (≈ 0.172 µM); Cytotoxicity under a hypoxic condition compared with that under a normal oxygen condition (tumor cells): no significant difference |
| CC(OC(=O)[C@H](C)NP(=O)(OC[C@H]1O[C@@H](n2cnc(N)nc2=O)C(F)(F)C1O)Oc1ccccc1)c1ccc([N+](=O)[O-])o1 (some centres unmarked) [Compound 004] |  |  |  |  |  |  | IC50 [1, 9]: 0.4 µg/mL (≈ 0.634 µM); IC50 [1, 10]: > 10 µg/mL |
| COC(=O)[C@H](C)NP(=O)(OC[C@H]1O[C@@H](n2cnc(N)nc2=O)C(F)(F)C1O)OC(C)c1ccc([N+](=O)[O-])cc1 (some centres unmarked) [Compound 007] |  |  | 0.5 (≈ 0.864 µM) | > 10 | 0.4 (≈ 0.692 µM) | > 10 |  |
